# Source: US12162872B2, “Cycloalkylurea derivative” (Sumitomo Pharma Co., Ltd., priority 2019, dated 2024)
# Target: T1, Human orexin receptor type 2 (Homo sapiens, UniProt O43614)
# T1 construct: expressed in transfected cells; host or cells: CHO cells (transient expression)
# T1 sequence (O43614 1-444): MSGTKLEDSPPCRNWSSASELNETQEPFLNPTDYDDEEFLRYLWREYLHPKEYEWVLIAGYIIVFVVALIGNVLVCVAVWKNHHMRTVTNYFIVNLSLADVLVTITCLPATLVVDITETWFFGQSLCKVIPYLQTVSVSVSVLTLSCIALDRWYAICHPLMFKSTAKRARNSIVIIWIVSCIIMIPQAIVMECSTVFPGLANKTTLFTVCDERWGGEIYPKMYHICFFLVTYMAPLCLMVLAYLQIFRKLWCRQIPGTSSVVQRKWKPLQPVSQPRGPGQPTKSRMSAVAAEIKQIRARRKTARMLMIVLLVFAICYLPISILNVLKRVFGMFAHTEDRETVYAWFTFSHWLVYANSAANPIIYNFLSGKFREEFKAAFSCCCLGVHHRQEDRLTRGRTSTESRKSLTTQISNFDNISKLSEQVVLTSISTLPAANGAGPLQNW
# Assay: Test 1: Evaluation of agonist activity for orexin receptor type 2 (aequorin luminescence, intracellular calcium mobilization in CHO cells)
# Format: cell-based
# Conditions: relative percentage of luminescence for the luminescence (100%) of Orexin A (100 pM); CHO cells transiently expressing human orexin receptor type 2 and apoaequorin; Orexin A Lot. 641114
# Summary of the method: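 CHO cells transiently expressing human OX2 receptor and apoaequorin, seeded 16-22 h, loaded with 1 μM coelenterazine hcp for 2 h at room temperature. Compound added in Hanks/20 mM HEPES/0.1% BSA, 0.1% DMSO final, and calcium luminescence measured. Activity expressed as percent of the 100 pM Orexin A response.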
row,SMILES,agonist activity (%)
1,"CC(C)N1CC[C@H](O[C@H]2CCCC(F)(F)[C@@H]2NC(=O)N2CCC(C)(c3noc([C@@H]4C[C@@H]4F)n3)CC2)C1 [Example 72, N-[(1R,6S)-2,2-difluoro-6-{[(3S)-1-(propan-2-yl)pyrrolidin-3-yl]oxy}cyclohexyl]-4-{5-[(1S,2S)-2-fluorocyclopropyl]-1,2,4-oxadiazol-3-yl}-4-methylpiperidine-1-carboxamide]",146
2,"Cc1nc(C2(C)CCN(C(=O)N[C@H]3CCCC[C@@H]3N3CCN(C(C)C)CC3)CC2)no1 (racemic) [Example 3, rac-4-methyl-4-(5-methyl-1,2,4-oxadiazol-3-yl)-N-{(1S,2S)-2-[4-(propan-2-yl)piperazin-1-yl]cyclohexyl}piperidine-1-carboxamide]",67
3,"CC(C)N1CCN([C@H]2CCC[C@@H]2NC(=O)N2CCC(C)(c3cc(C4CC4)on3)CC2)CC1 (racemic) [Example 6, rac-4-(5-cyclopropyl-1,2-oxazol-3-yl)-4-methyl-N-{(1S,2S)-2-[4-(propan-2-yl)piperazin-1-yl]cyclopentyl}piperidine-1-carboxamide]",43
4,"CC(C)N1CCN([C@H]2CCCC(F)(F)[C@@H]2OC(=O)N2CCC(C)(c3cc(C4CC4)on3)CC2)CC1 (racemic) [Example 11, rac-(1R,6S)-2,2-difluoro-6-[4-(propan-2-yl)piperazin-1-yl]cyclohexyl 4-(5-cyclopropyl-1,2-oxazol-3-yl)-4-methylpiperidine-1-carboxylate]",211
5,"Cc1ccc(C2(C)CCN(C(=O)N[C@@H]3[C@@H](N4C5CCC4CN(C(C)C)C5)CCCC3(F)F)CC2)cc1 [Example 63, N-{(1R,6S)-2,2-difluoro-6-[3-(propan-2-yl)-3,8-diazabicyclo[3.2.1]octan-8-yl]cyclohexyl}-4-methyl-4-(4-methylphenyl)piperidine-1-carboxamide]",149
6,"Cc1nc(C2(C)CCN(C(=O)O[C@@H]3[C@@H](N4CCN(C(C)C)CC4)CCCC3(F)F)CC2)no1 (racemic) [Example 10, rac-(1R,6S)-2,2-difluoro-6-[4-(propan-2-yl)piperazin-1-yl]cyclohexyl 4-methyl-4-(5-methyl-1,2,4-oxadiazol-3-yl)piperidine-1-carboxylate]",213
7,"Cc1ccc(C2CC=C(C(=O)O[C@@H]3[C@@H](N4CCN(C(C)C)CC4)CCCC3(F)F)CC2)cc1 (mixture of isomers) [Example 78, rac-(1R,6S)-2,2-Difluoro-6-[4-(propan-2-yl)piperazin-1-yl]cyclohexyl 4′-methyl-1,2,3,6-tetrahydro[1,1′-biphenyl]-4-carboxylate]",36
8,"CC(C)N1CCN([C@H]2CCCC(F)(F)[C@@H]2NC(=O)N2CCC(C)(c3noc([C@@H]4C[C@@H]4F)n3)CC2)CC1 [Example 66, N-{(1R,6S)-2,2-difluoro-6-[4-(propan-2-yl)piperazin-1-yl]cyclohexyl}-4-{5-[(1S,2S)-2-fluorocyclopropyl]-1,2,4-oxadiazol-3-yl}-4-methylpiperidine-1-carboxamide]",144
9,"Cc1ccc(C2CCN(C(=O)NC3C(CN4CCN(C(C)C)CC4)[C@@H]4CC[C@H]3C4)CC2)cc1 (mixture of isomers) [Example 81, rac-4-(4-Methylphenyl)-N-[(1S,4R)-3-{[4-(propan-2-yl)piperazin-1-yl]methyl}bicyclo[2.2.1]heptan-2-yl]piperidine-1-carboxamide]",57
10,"CC(C)N1CCN([C@H]2CCCC(F)(F)[C@@H]2NC(=O)N2CCC(C)(c3nnc(C4CC4)s3)CC2)CC1 (racemic) [Example 34, rac-4-(5-cyclopropyl-1,3,4-thiadiazol-2-yl)-N-{(1R,6S)-2,2-difluoro-6-[4-(propan-2-yl)piperazin-1-yl]cyclohexyl}-4-methylpiperidine-1-carboxamide]",183
11,"CC(C)N1CCN([C@H]2CCCC(F)(F)[C@@H]2NC(=O)N2CCC3(CCCC3)CC2)CC1 (racemic) [Example 33, rac-N-{(1R,6S)-2,2-difluoro-6-[4-(propan-2-yl)piperazin-1-yl]cyclohexyl}-8-azaspiro[4.5]decane-8-carboxamide]",123
12,"CC(C)N1CCN([C@H]2CCCC(F)(F)[C@@H]2NC(=O)N2CCC(C)(Oc3ccccn3)CC2)CC1 (racemic) [Example 42, rac-N-{(1R,6S)-2,2-difluoro-6-[4-(propan-2-yl)piperazin-1-yl]cyclohexyl}-4-methyl-4-[(pyridin-2-yl)oxy]piperidine-1-carboxamide]",141
13,"CC(C)N1CCN([C@H]2CCCC(F)(F)[C@@H]2NC(=O)N2CCC(c3ccc(F)cn3)CC2)CC1 (racemic) [Example 52, rac-N-{(1R,6S)-2,2-difluoro-6-[4-(propan-2-yl)piperazin-1-yl]cyclohexyl}-4-(5-fluoropyridin-2-yl)piperidine-1-carboxamide]",113
14,"CC(C)N1CCN([C@H]2CCCC(F)(F)[C@@H]2OC(=O)N2CCC(C)(c3noc(C4CC4)n3)CC2)CC1 [Example 14, (1R,6S)-2,2-difluoro-6-[4-(propan-2-yl)piperazin-1-yl]cyclohexyl 4-(5-cyclopropyl-1,2,4-oxadiazol-3-yl)-4-methylpiperidine-1-carboxylate]",178
